From patent publication US10798941B2, “Microbiocidal oxadiazole derivatives” (SYNGENTA PARTICIPATIONS AG, priority 2016, dated 2020) come the findings set out here.

Molecules are shown by their SMILES.

The assay deals with Glomerella Lagenarium (Colletotrichum Lagenarium). Kind of assay: Glomerella lagenarium (Colletotrichum lagenarium) liquid culture / cucumber / preventative (anthracnose). Type of assay: cell-based. To be noted: Colletotrichum orbiculare; 20 ppm in the applied formulation; liquid culture in PDB, 24° C., inhibition of growth measured photometrically 3 to 4 days after application, vs untreated; read-out: disease control. As for the experimental part: Mycelia fragments or conidia suspensions of a fungus prepared either freshly from liquid cultures of the fungus or from cryogenic storage, are directly mixed into nutrient broth. DMSO solutions of the test compound (max. 10 mg/ml) are diluted with 0.025% Tween20 by a factor of 50 and 10 μl of this solution is pipetted into a microtiter plate (96-well format). The nutrient broth containing the fungal spores/mycelia fragments is then added to give an end concentration of the tested compound. The test plates are incubated in the dark at 24° C. and 96% relative humidity. The inhibition of fungal growth is determined photometrically after 2 to 7 days, depending on the pathosystem, and percent antifungal activity relative to the untreated check is calculated.
Conidia of the fungus from cryogenic storage are directly mixed into nutrient broth (PDB—potato dextrose broth). After placing a (DMSO) solution of test compound into a microtiter plate (96-well format), the nutrient broth containing the fungal spores is added.
The following compounds at 20 ppm in the applied formulation give at least 80% disease control in this test when compared to untreated control under the same conditions, which show extensive disease development.
For `Cc1ccc2c(C=O)cn(Cc3ccc(-c4noc(C(F)(F)F)n4)cc3)c2c1` [Compound 1.51, 6-methyl-1-[[4-[5-(trifluoromethyl)-1,2,4-oxadiazol-3-yl]phenyl]methyl]indole-3-carbaldehyde], the inhibition of growth at 20 ppm was at least 80%.
Turning to `FC(F)(F)c1nc(-c2ccc(Cn3ccc4ccc(Cl)cc43)cc2)no1` [Compound 1.64, 3-[4-[(6-chloroindol-1-yl)methyl]phenyl]-5-(trifluoromethyl)-1,2,4-oxadiazole], the inhibition of growth at 20 ppm was at least 80%.
For the compound `COC(=O)c1cccc2c1ccn2Cc1ccc(-c2noc(C(F)(F)F)n2)cc1` [Compound 1.66, methyl 1-[[4-[5-(trifluoromethyl)-1,2,4-oxadiazol-3-yl]phenyl]methyl]indole-4-carboxylate], the inhibition of growth at 20 ppm is at least 80%.
Under `COC(=O)c1cc(C(F)(F)F)n(Cc2ccc(-c3noc(C(F)(F)F)n3)cc2)c1C` [Compound 1.68, methyl 2-methyl-5-(trifluoromethyl)-1-[[4-[5-(trifluoromethyl)-1,2,4-oxadiazol-3-yl]phenyl]methyl]pyrrole-3-carboxylate] stands at least 80%; under `FC(F)(F)c1nc(-c2ccc(Cn3c(Br)nc(Br)c3Br)cc2)no1` [Compound 1.69, 3-[4-[(2,4,5-tribromoimidazol-1-yl)methyl]phenyl]-5-(trifluoromethyl)-1,2,4-oxadiazole], at least 80%.
For the compound `Cc1c(C=O)c2ccccc2n1Cc1ccc(-c2noc(C(F)(F)F)n2)cc1` [Compound 1.70, 2-methyl-1-[[4-[5-(trifluoromethyl)-1,2,4-oxadiazol-3-yl]phenyl]methyl]indole-3-carbaldehyde], the inhibition of growth at 20 ppm was at least 80%.
Regarding `FC(F)(F)c1nc(-c2ccc(Cn3c(Br)nc(Cl)c3Cl)cc2)no1` [Compound 1.72, 3-[4-[(2-bromo-4,5-dichloro-imidazol-1-yl)methyl]phenyl]-5-(trifluoromethyl)-1,2,4-oxadiazole], the inhibition of growth at 20 ppm is at least 80%.
To `CCOC(=O)c1nn(Cc2ccc(-c3noc(C(F)(F)F)n3)cc2)cc1-c1ccccc1` [Compound 1.84, ethyl 4-phenyl-1-[[4-[5-(trifluoromethyl) 1,2,4-oxadiazol-3-yl]phenyl]methyl]pyrazole-3-carboxylate] belongs at least 80%; to `Fc1cc2ncn(Cc3ccc(-c4noc(C(F)(F)F)n4)cc3)c2cc1Cl` [Compound 1.92, 3-[4-[(6-chloro-5-fluoro-benzimidazol-1-yl)methyl]phenyl]-5-(trifluoromethyl)-1,2,4-oxadiazole], at least 80%.
Turning to `FC(F)(F)c1nc(-c2ccc(Cn3cncn3)c(C(F)(F)F)c2)no1` [Compound 1.98, 3-[4-(1,2,4-triazol-1-ylmethyl)-3-(trifluoromethyl)phenyl]-5-(trifluoromethyl)-1,2,4-oxadiazole], the inhibition of growth at 20 ppm is at least 80%.
Under `Cc1cc(C)n(Cc2ccc(-c3noc(C(F)(F)F)n3)cc2Cl)n1` [Compound 1.100, 3-[3-chloro-4-[(3,5-dimethylpyrazol-1-yl)methyl]phenyl]-5-(trifluoromethyl)-1,2,4-oxadiazole] stands at least 80%; under `FC(F)(F)c1nc(-c2ccc(Cn3cnc(Br)c3)c(C(F)(F)F)c2)no1` [Compound 1.103, 3-[4-[(4-bromoimidazol-1-yl)methyl]-3-(trifluoromethyl)phenyl]-5-(trifluoromethyl)-1,2,4-oxadiazole], at least 80%.
Under `COC(=O)c1ncn(Cc2ccc(-c3noc(C(F)(F)F)n3)cc2Cl)c1C(=O)OC` [Compound 1.104, dimethyl 1-[[2-chloro-4-[5-(trifluoromethyl)-1,2,4-oxadiazol-3-yl]phenyl]methyl]imidazole-4,5-dicarboxylate] stands at least 80%; under `N#Cc1ncn(Cc2ccc(-c3noc(C(F)(F)F)n3)cc2Cl)c1C#N` [Compound 1.106, 1-[[2-chloro-4-[5-(trifluoromethyl)-1,2,4-oxadiazol-3-yl]phenyl]methyl]imidazole-4,5-dicarbonitrile], at least 80%; under `FC(F)(F)c1nc(-c2ccc(Cn3cnc4ccccc43)c(Cl)c2)no1` [Compound 1.110, 3-[4-(benzimidazol-1-ylmethyl)-3-chloro-phenyl]-5-(trifluoromethyl)-1,2,4-oxadiazole], at least 80%.
On to `FC(F)(F)c1nc(-c2ccc(Cn3cc(Cl)cn3)c(Cl)c2)no1` [Compound 1.111, 3-[3-chloro-4-[(4-chloropyrazol-1-yl)methyl]phenyl]-5-(trifluoromethyl)-1,2,4-oxadiazole], for which the inhibition of growth at 20 ppm was at least 80%.
Under `FC(F)(F)c1nc(-c2ccc(Cn3nnnc3-c3ccc(Cl)cc3)c(Cl)c2)no1` [Compound 1.113, 3-[3-chloro-4-[[5-(4-chlorophenyl)tetrazol-1-yl]methyl]phenyl]-5-(trifluoromethyl)-1,2,4-oxadiazole] stands at least 80%; under `FC(F)(F)c1nc(-c2ccc(Cn3cc(I)cn3)c(Cl)c2)no1` [Compound 1.114, 3-[3-chloro-4-[(4-iodopyrazol-1-yl)methyl]phenyl]-5-(trifluoromethyl)-1,2,4-oxadiazole], at least 80%.
`FC(F)(F)c1nc(-c2ccc(Cn3cc(Br)cn3)c(Cl)c2)no1` [Compound 1.115, 3-[4-[(4-bromopyrazol-1-yl)methyl]-3-chloro-phenyl]-5-(trifluoromethyl)-1,2,4-oxadiazole]: the inhibition of growth at 20 ppm is at least 80%.
Under `COc1cc(-c2noc(C(F)(F)F)n2)ccc1Cn1cncc1Br` [Compound 1.116, 3-[4-[(5-bromoimidazol-1-yl)methyl]-3-methoxy-phenyl]-5-(trifluoromethyl)-1,2,4-oxadiazole] stands at least 80%; under `COc1cc(-c2noc(C(F)(F)F)n2)ccc1Cn1cnc(Br)c1` [Compound 1.117, 3-[4-[(4-bromoimidazol-1-yl)methyl]-3-methoxy-phenyl]-5-(trifluoromethyl)-1,2,4-oxadiazole], at least 80%; under `Cc1nn(Cc2ccc(-c3noc(C(F)(F)F)n3)cc2F)c(C)c1Cl` [Compound 1.127, 3-[4-[(4-chloro-3,5-dimethyl-pyrazol-1-yl)methyl]-3-fluoro-phenyl]-5-(trifluoromethyl)-1,2,4-oxadiazole], at least 80%.
To `Fc1cc(-c2noc(C(F)(F)F)n2)ccc1Cn1nnnc1-c1ccc(Cl)cc1` [Compound 1.130, 3-[4-[[5-(4-chlorophenyl)tetrazol-1-yl)methyl]-3-fluoro-phenyl]-5-(trifluoromethyl)-1,2,4-oxadiazole] belongs at least 80%; to `COC(=O)c1ncn(Cc2ccc(-c3noc(C(F)(F)F)n3)cn2)n1` [Compound 1.138, methyl 1-[[5-[5-(trifluoromethyl)-1,2,4-oxadiazol-3-yl]-2-pyridyl]methyl]-1,2,4-triazole-3-carboxylate], at least 80%; to `Cc1cc(C)n(Cc2ccc(-c3noc(C(F)(F)F)n3)cn2)n1` [Compound 1.140, 3-[6-[(3,5-dimethylpyrazol-1-yl)methyl]-3-pyridyl]-5-(trifluoromethyl)-1,2,4-oxadiazole], at least 80%.
Consider `CCOC(=O)c1ncn(Cc2ccc(-c3noc(C(F)(F)F)n3)cc2)c1-c1ccccc1` [Compound 1.188, ethyl 5-phenyl-1-[[4-[5-(trifluoromethyl)-1,2,4-oxadiazol-3-yl]phenyl]methyl]imidazole-4-carboxylate], for which the inhibition of growth at 20 ppm is at least 80%.
Under `CCOC(=O)c1c(-c2ccccc2)ncn1Cc1ccc(-c2noc(C(F)(F)F)n2)cc1` [Compound 1.189, ethyl 5-phenyl-3-[[4-[5-(trifluoromethyl)-1,2,4-oxadiazol-3-yl]phenyl]methyl]imidazole-4-carboxylate] stands at least 80%.
For the compound `Cc1nc2cc(C(F)(F)F)ccc2n1Cc1ccc(-c2noc(C(F)(F)F)n2)cc1` [Compound 1.191, 3-[4-[[2-methyl-5-(trifluoromethyl)benzimidazol-1-yl]methyl]phenyl]-5-(trifluoromethyl)-1,2,4-oxadiazole], the inhibition of growth at 20 ppm is at least 80%.
Under `Cc1cc(C)n(Cc2ccc(-c3noc(C(F)(F)F)n3)nc2)n1` [Compound 1.284, 3-[5-[(3,5-dimethylpyrazol-1-yl)methyl]-2-pyridyl]-5-(trifluoromethyl)-1,2,4-oxadiazole] stands at least 80%.
Under `C[C@@H]1CN(Cc2ccc(-c3noc(C(F)(F)F)n3)cc2)C[C@H](C)O1` [Compound 1.307, (2R,6S)-2,6-dimethyl-4-[[4-[5-(trifluoromethyl)-1,2,4-oxadiazol-3-yl]phenyl]methyl]morpholine] stands at least 80%; under `Cc1cc(C)n(CCc2ccc(-c3noc(C(F)(F)F)n3)cc2)n1` [Compound 1.309, 3-[4-[2-(3,5-dimethylpyrazol-1-yl)ethyl]phenyl]-5-(trifluoromethyl)-1,2,4-oxadiazole], at least 80%.
